Test results published in patent US10744201B2, “Method for treating rheumatoid arthritis with a human IL-6 receptor antibody and methotrexate” (Chugai Seiyaku Kabushiki Kaisha, priority 2003, dated 2020).

Tests used:
[1] = tested on: patients with active rheumatoid arthritis; experiment: Phase II trial of MRA alone and with methotrexate: ACR 20/50/70 improvement rates; type: in vivo, human; details: for ACR 20 / ACR 50 / ACR 70: 16 weeks
Description: (§1) The efficacy, safety and tolerability of MRA were assessed.
Study design: a double-blind, randomized, parallel group study by central randomization method
ACR improvement criteria: The cases where among the following 7 items, the number of swelling joints and the number of pain joints are improved by 20% or more and improvement by 20% or more is observed in three out of the remaining five items are determined as 20% or more improvement in ACR criteria. Further, 50% and 70% improvement cases indicate the patient cases where the above 20% improved parts are improved by 50% and 70%, respectively.
(1) Number of swelling joints
(2) Number of tender joints
(3) Pain assessment by a patient
(4) Global assessment of disease activity by a patient
(5) Global disease activity by a physician
(6) Assessment of physical function by a patient

[2] = tested on: patients with active rheumatoid arthritis; experiment: Phase II trial: reduction of swollen joint count; type: in vivo, human
Description: as §1
Reduction of Swollen Joint Count (Table 2)
The mean swollen joint count was similar across all the treatment groups at baseline.

[3] = tested on: patients with active rheumatoid arthritis; experiment: Phase II trial: safety (adverse events, laboratory data, infusion reaction); details: for serious adverse events of which causal relationship could not be denied: hypersensitivity: no combination with MTX, after the 3rd or 4th MRA administration
Description: Subjects: Patients with rheumatoid arthritis diagnosed based on the 1987 disease classification of the American College of Rheumatology (ACR), of at least 6 months duration were enrolled.
Dosage and Administration: Seven groups: 0 mg/kg (placebo)+MTX, 2 mg/kg MRA+MTX, 4 mg/kg MRA+MTX, 8 mg/kg MRA+MTX, 2 mg/kg MRA+MTX placebo, 4 mg/kg MRA+MTX placebo, and 8 mg/kg MRA+MTX placebo. MRA or placebo administration is given by intravenous infusion, at 4-week intervals. MTX or MTX placebo administration is given orally, once weekly, at 10-25 mg/week.
Study Method: The assigned dose was administered by intravenous infusion, four times in total at 4-week intervals, and efficacy and safety were evaluated at 2-week intervals up to 16 weeks, and follow-up observation was done at 20 weeks. The primary endpoint for efficacy was the rate of ACR 20 at 16 weeks (4 weeks after the last dose). Secondary endpoints included rates of ACR 50 and ACR 70 at 16 weeks (4 weeks after the last dose).
Among 359 enrolled patients, the safety evaluation sets, the full analysis sets, and PPS (per protocol set) were 359, 354, and 307, respectively.
An infusion reaction was defined as an adverse event occurring within 24 hours of study drug administration.

[4] = tested on: patients with active rheumatoid arthritis; experiment: Phase II trial: development of anti-MRA antibodies; type: in vivo, human; details: 8 mg/kg treatment groups
Description: as §1
The development of anti-MRA antibodies was examined. None occurred at the 8 mg/kg treatment groups (monotherapy or combination with MTX). At 2 or 4 mg/kg treatment groups, the number of incidents was less in groups in combination with MTX than MRA monotherapy groups.

[5] = 0 mg/kg (placebo)+MTX 10-25 mg/week oral (control group)
[6] = 2 mg/kg MRA i.v. at 4-week intervals x4, with MTX or MTX placebo 10-25 mg/week oral
[7] = 4 mg/kg MRA i.v. at 4-week intervals x4, with MTX or MTX placebo 10-25 mg/week oral
[8] = 8 mg/kg MRA i.v. at 4-week intervals x4, with MTX or MTX placebo 10-25 mg/week oral

Molecule: CN(Cc1cnc2nc(N)nc(N)c2n1)c1ccc(C(=O)N[C@@H](CCC(=O)O)C(=O)O)cc1 [MTX, methotrexate]
- ACR 20 [1, 5]: 40.8%
- ACR 50 [1, 5]: 28.6%
- ACR 70 [1, 5]: 16.3%
- Swollen joint count, Change from Baseline, Mean ± SD ([2]; MTX alone (MRA placebo), Week 16): −5.7 ± 6.1

Molecule: MRA: recombinant humanised anti-human interleukin-6 receptor monoclonal antibody of the IgG1 sub-class that inhibits the function of IL-6
- serious adverse events of which causal relationship could not be denied: hypersensitivity ([3]; 2 mg/kg MRA group): four patients of hypersensitivity
- serious adverse events of which causal relationship could not be denied: hypersensitivity ([3]; 4 mg/kg MRA group): one patient of hypersensitivity
- Atherogenic Index ([3]; MRA groups): no overall change
- laboratory data relating to lipids (total cholesterol, HDL cholesterol and triglyceride) ([3]; MRA groups): increase
- number of patients experiencing an infusion reaction (adverse event within 24 hours of study drug administration) ([3]; across treatment groups): possible inverse dose-response
- ALT and AST levels (hepatic functions) ([3]; equivalent to elevations observed in other patients with rheumatoid arthritis): elevation
- CRP and ESR (parameters for disease activity) ([3]; in a dose dependent manner): decreases of CRP and ESR
- hemoglobin (parameter for disease activity) ([3]; in a dose dependent manner): elevation of hemoglobin
- neutrophil count ([3]; in some patients): Slight transient decrease
- safety ([3]; in vivo): confirmed
- ACR 20 [1, 6]: 30.8%
- ACR 50 [1, 6]: 5.8%
- ACR 70 [1, 6]: 1.9%
- ACR 20 [1, 7]: 61.1%
- ACR 50 [1, 7]: 27.8%
- ACR 70 [1, 7]: 5.6%
- ACR 20 [1, 8]: 62.7%
- ACR 50 [1, 8]: 41.2%
- ACR 70 [1, 8]: 15.7%
- dose dependency in ACR 20 improvement rate ([1]; 2, 4, 8 mg/kg MRA alone groups): statistically significant dose dependency
- dose dependent response for ACR50 and ACR70 improvement rate ([1]; 2, 4, 8 mg/kg MRA, alone and MTX-combined groups): statistically significant dose dependent response
- dose-response (overall result) ([1]; in vivo): clear dose-response
- effectiveness to treat patients with rheumatoid arthritis ([1]; in vivo): confirmed
- development of anti-MRA antibodies [4]: None
- Swollen joint count, Change from Baseline, Mean ± SD ([2]; 2 mg/kg MRA, with MTX or MTX placebo, Week 16): −4.5 ± 5.7
- Swollen joint count, Change from Baseline, Mean ± SD ([2]; 4 mg/kg MRA, with MTX or MTX placebo, Week 16): −5.8 ± 4.1
- Swollen joint count, mean difference (95% CI) to the MTX group ([2]; 8 mg/kg MRA group vs MTX group, Week 16): −2.31 (−4.07, −0.55)
- Swollen joint count, Change from Baseline, Mean ± SD ([2]; 8 mg/kg MRA, with MTX or MTX placebo, Week 16): −8.4 ± 4.6
- linear dose-relationship of reduction in swollen joint count ([2]; 2, 4, 8 mg/kg MRA groups, monotherapy p<0.001, combination p=0.004): statistically significant linear dose-relationship
